The target in one data set is FGFR1 kinase (Homo sapiens (Human), UniProt P11362). The experiment in a line: Enzymologic experiment of FGFR1 (TR-FRET). To be noted: TR-FRET kinase activity. Type of data set: biochemical. As to the method: 2. Enzymologic Experiment of FGFR1
In this experiment, the inhibitory effect of the compounds on FGFR1 kinase activity was tested by a fluorescence resonance energy transfer (TR-FRET) method, and the half maximal inhibitory concentration (IC50) of the compounds on the FGFR1 kinase activity was determined.
1) 1˜5 μL of FGFR1 enzymatic solution was added to a 384-well plate, and the final concentration of the enzyme was 0.1˜5 nM.
2) 1˜5 μL of diluted solution in gradient of the compound was added.
3) 1˜5 μL of a substrate mixture containing substrate polypeptide with a final concentration of 5˜50 nM and ATP with a final concentration of 10˜200 μM was added.
4) The mixture was incubated for 0.5-3 hours at room temperature.
5) 10 μL of EDTA and a test solution comprising labeled antibody were added, and the plate was incubated for 1 hour at room temperature.
6) The fluorescence signal values of each plate were determined by a microplate reader at 665 nm.
7) The inhibition rates were calculated according to the fluorescence signal values.
The IC50 of the compound was obtained by curve fitting according to the inhibition rates at different concentrations, and the enzymatic activity of the specific example compounds is shown in Table 1.
On the technique in general: Time-resolved FRET reads energy transfer from a long-lived donor to a nearby acceptor.

The test system of a further data set is SK-HEP-1 cells. The experiment in a line: Inhibition of SK-HEP-1 cell proliferation (CellTiter-Glo). Type of data set: cell-based. The following applies: Homo sapiens, SK-HEP1, 72 hours. As to the method:
5. Experiment on the Inhibition of SK-HEP-1 Cell Proliferation
In this experiment, the inhibitory effect of the compounds on SK-HEP-1 cell proliferation was tested by a CellTiter-Glo method, and the half maximal inhibitory concentration (IC50) of the compounds on the activity of cell proliferation was determined.
1) A 96-well cell culture plate was seeded with 50˜100 μL of SK-HEP-1 cell suspension at a density of 1-5×10^4 cells/ml. The culture plate was incubated in an incubator for 16˜24 hours (37° C., 5% CO2).
(§1) 2) Different concentrations of the test compound in a gradient dilution were added to the cells in the culture plate. The culture plate was incubated in an incubator for 72 hours (37° C., 5% CO2).
(§2) 3) 50˜100 μL of CellTiter-Glo reagent were added to each well. Then, the culture plate was shaken or left to stand for 5˜30 minutes at room temperature.
(§3) 4) The chemiluminescence signal values of each plate were determined by a microplate reader.
(§4) 5) The inhibition rates were calculated according to the chemiluminescence signal values.
The IC50 of the compound was obtained by curve fitting according to the inhibition rates at different concentrations, and the cell activity of the specific Example compounds is shown in Table 2.

The next data set relates to Hep 3B cells. The data set is described as follows: Inhibition of Hep 3B cell proliferation (CellTiter-Glo). Type of data set: cell-based. The following applies: Homo sapiens, Hep3B, 72 hours. On the procedure: 3. Experiment on the Inhibition of Hep 3B Cell Proliferation
In this experiment, the inhibitory effect of the compounds on Hep 3B cell proliferation was tested by a CellTiter-Glo method, and the half maximal inhibitory concentration (IC50) of the compounds on the activity of cell proliferation was determined.
1) A 96-well cell culture plate was seeded with 50˜100 μL of Hep 3B cell suspension at a density of 1-5×10^4 cells/ml. The culture plate was incubated in an incubator for 16-24 hours (37° C., 5% CO2).
as §1
3) 50-100 μL of CellTiter-Glo reagent were added to each well. Then, the culture plate was shaken or left to stand for 5˜30 minutes at room temperature.
as §3, §4
6) The IC50 of the compound was obtained by curve fitting according to the inhibition rates at different concentrations, and the cell activity of the specific example compounds is shown in Table 2.
Background: In ATP-based viability assays light output follows the ATP content of the culture.

The next data set has as its system HuH-7 cells. The data set is described as follows: Inhibition of HuH-7 cell proliferation (CellTiter-Glo). To be noted: Homo sapiens, 72 hours. Format: cell-based. As to the method: 4. Experiment on the Inhibition of HuH-7 Cell Proliferation
In this experiment, the inhibitory effect of the compounds on HuH-7 cell proliferation was tested by a CellTiter-Glo method, and the half maximal inhibitory concentration (IC50) of the compounds on the activity of cell proliferation was determined.
1) A 96-well cell culture plate was seeded with 50˜100 μL of HuH-7 cell suspension at a density of 1-5×10^4 cells/ml. The culture plate was incubated in an incubator for 16˜24 hours (37° C., 5% CO2).
as §1, §2, §3, §4
6) The IC50 of the compound was obtained by curve fitting according to the inhibition rates at different concentrations, and the cell activity of the specific Example compounds is shown in Table 2.

Data set [1] in a line: Pharmacokinetic (PK) analysis in rats. Format: in vivo, Sprague Dawley (SD) rats. The following applies: SD rats, single intragastric administration, 5 mg/kg, plasma; for AUC(0-t): read-out: Area Under Curve AUC0-t; for AUC(0-inf): read-out: Area Under Curve AUC0-∞; for half-life: read-out: Half-Time t1/2 (converted); for Cmax: read-out: Plasma Concentration Cmax. As to the method: 6. Pharmacokinetic (PK) Analysis in Rats
Mode of administration: a single intragastric administration.
Formulation: 0.5% CMC and 1% Tween 80, ultrasonic dissolution.
Sampling points: 0.5, 1, 2, 4, 6, 8 and 24 hours after administration.
1. 1.0 ml of intravenous blood was collected and placed in a K2EDTA test tube.
The blood was centrifuged at room temperature at the speed of 1000˜3000×g for 5˜20 minutes to isolate the plasma, which was then stored at −80° C. 2. 160 μL of acetonitrile were added to 40 μL of plasma sample for precipitation, and then the mixture was centrifuged at the speed of 500˜2000×g for 5˜20 minutes. 3. 100 μL of treated solution were taken, and the concentration of the test compound was analyzed by LC/MS/MS. The LC/MS/MS analytical instrument was AB Sciex API 4000.
Liquid Chromatography Analysis:
Condition of Liquid chromatography: Shimadzu LC-20AD pump
Chromatographic column: phenomenex Gemiu 5 um C18 50×4.6 mm
Mobile phase: Solution A is 0.1% aqueous formic acid solution, and solution B is acetonitrile
Elution time: 0-3.5 minutes, the eluent was as follows:
Mass spectrometry analysis:
Mass spectrometer setup conditions: positive ion electrospray ionization (ESI) mode.

FGFR1 kinase, sequence (P11362 22-822): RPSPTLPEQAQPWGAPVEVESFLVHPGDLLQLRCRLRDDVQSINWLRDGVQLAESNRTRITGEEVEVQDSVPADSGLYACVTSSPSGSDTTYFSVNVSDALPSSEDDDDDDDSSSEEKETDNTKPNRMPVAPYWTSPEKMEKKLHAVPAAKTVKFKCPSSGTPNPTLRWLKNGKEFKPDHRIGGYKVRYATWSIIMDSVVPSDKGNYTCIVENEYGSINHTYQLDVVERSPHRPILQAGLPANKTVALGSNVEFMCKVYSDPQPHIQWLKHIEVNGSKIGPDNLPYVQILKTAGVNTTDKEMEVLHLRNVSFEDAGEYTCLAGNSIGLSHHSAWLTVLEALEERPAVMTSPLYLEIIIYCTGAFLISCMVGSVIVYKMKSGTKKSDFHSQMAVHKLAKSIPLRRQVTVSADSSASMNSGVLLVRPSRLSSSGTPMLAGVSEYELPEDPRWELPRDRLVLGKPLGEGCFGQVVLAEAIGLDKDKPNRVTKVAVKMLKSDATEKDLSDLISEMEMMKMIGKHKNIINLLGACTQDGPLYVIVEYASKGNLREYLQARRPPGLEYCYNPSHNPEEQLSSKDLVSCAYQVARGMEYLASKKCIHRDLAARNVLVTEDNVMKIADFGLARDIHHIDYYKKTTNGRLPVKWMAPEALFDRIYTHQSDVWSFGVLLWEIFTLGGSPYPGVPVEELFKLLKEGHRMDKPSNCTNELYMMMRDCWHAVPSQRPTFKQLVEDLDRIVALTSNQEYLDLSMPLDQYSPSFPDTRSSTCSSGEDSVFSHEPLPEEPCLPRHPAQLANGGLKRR

One may read the IC50 as the concentration that inhibits the measured activity by half. `COCCNc1cc(NC(=O)N2CCCc3cc(CN(C)C(=O)[C@H]4CCOC4)c(C=O)nc32)ncc1C#N` [Example 6, (S)—N-(5-Cyano-4-((2-methoxyethyl)amino)pyridin-2-yl)-7-formyl-6-((N-methyltetrahydrofuran-3-carboxamido)methyl)-3,4-dihydro-1,8-naphthyridin-1(2H)-carb oxamide]: the IC50 against FGFR1 kinase is > 10000 nM; with SK-HEP-1 cells, > 10000 nM; with Hep 3B cells it was 2.7 nM; in the data set on HuH-7 cells, 9.7 nM.

Consider `COCCNc1cc(NC(=O)N2CCCc3cc(CN(C)C(=O)[C@@H]4CCOC4)c(C=O)nc32)ncc1C#N` [Example 7, (R)—N-(5-Cyano-4-((2-methoxyethyl)amino)pyridin-2-yl)-7-formyl-6-((N-methyltetrahydrofuran-3-carboxamido)methyl)-3,4-dihydro-1,8-naphthyridin-1(2H)-carb oxamide], for which the IC50 on FGFR1 kinase is > 10000 nM; in the data set on SK-HEP-1 cells, > 10000 nM; in the data set with Hep 3B cells, 4.7 nM; with HuH-7 cells, 10.6 nM.

With `COCCNc1cc(NC(=O)N2CCCc3cc(CN4CCC(OC)C4=O)c(C=O)nc32)ncc1C#N` (stereo not shown) [Example 44, N-(5-Cyano-4-((2-methoxyethyl)amino)pyridin-2-yl)-7-formyl-6-((3-methoxy-2-carbonylpyrrolidin-1-yl)methyl)-3,4-dihydro-1,8-naphthyridin-1(2H)-carboxamide], the IC50 in the data set on SK-HEP-1 cells was > 10000 nM. The compound also gave an IC50 in the data set on Hep 3B cells of 6 nM. The Peak Time tmax in data set [1] was determined as 2 h. Moreover, in data set [1] (Sprague-Dawley, rat, po), the AUC(0-t) is 9690 ng·h/mL, the AUC(0-inf) amounted to 9820 ng·h/mL, the half-life was 1 h and the Cmax is 3010 ng/mL. In the data set with HuH-7 cells, the IC50 was 6.9 nM.

Regarding `COCCNc1cc(NC(=O)N2CCCc3cc(CN4CC[C@@H](OC)C4=O)c(C=O)nc32)ncc1C#N` [Example 45, (R)—N-(5-Cyano-4-((2-methoxyethyl)amino)pyridin-2-yl)-7-formyl-6-((3-methoxy-2-carbonylpyrrolidin-1-yl)methyl)-3,4-dihydro-1,8-naphthyridin-1(2H)-carboxamide], in the data set with SK-HEP-1 cells, the IC50 is > 10000 nM. The compound further yielded a half-maximal inhibitory concentration (IC50) with Hep 3B cells of 1.9 nM. The Peak Time tmax in data set [1] was 2 h. Further, in data set [1] (Sprague-Dawley, rat, po), the AUC(0-t) is 12100 ng·h/mL, the AUC(0-inf) was 12300 ng·h/mL, the half-life was 1.1 h and the Cmax was 3760 ng/mL. The same compound came in with an IC50 in the data set on HuH-7 cells of 8.3 nM.

In the case of `CO[C@H]1CCN(c2cc(NC(=O)N3CCCc4cc(CN5CC[C@H](OC)C5=O)c(C=O)nc43)ncc2C#N)C1` [Example 53, N-(5-Cyano-4-((S)-3-methoxypyrrolidin-1-yl)pyridin-2-yl)-7-formyl-6-(((S)-3-methoxy-2-carbonylpyrrolidin-1-yl)methyl)-3,4-dihydro-1,8-naphthyridin-1(2H)-carboxamide], the concentration for half-maximal inhibition (IC50) at FGFR1 kinase is > 10000 nM.

In the case of `COC[C@H](C)Nc1cc(NC(=O)N2CCCc3cc(CN4CC[C@H](OC)C4=O)c(C=O)nc32)ncc1C#N` [Example 90, N-(5-Cyano-4-(((S)-1-methoxypropan-2-yl)amino)pyridin-2-yl)-7-formyl-6-(((S)-3-methoxy-2-carbonylpyrrolidin-1-yl)methyl)-3,4-dihydro-1,8-naphthyridin-1(2H)-carboxamide], the IC50 at FGFR1 kinase is > 10000 nM.

As a reminder, the MRT is the average time that molecules of a dose stay in the body. As to `COC[C@@H](C)Nc1cc(NC(=O)N2CCCc3cc(CN4CC[C@@H](OC)C4=O)c(C=O)nc32)ncc1C#N` [Example 91, N-(5-cyano-4-(((R)-1-methoxypropan-2-yl)amino)pyridin-2-yl)-7-formyl-6-(((R)-3-methoxy-2-carbonylpyrrolidin-1-yl)methyl)-3,4-dihydro-1,8-naphthyridin-1(2H)-carboxamide], the IC50 in the data set on SK-HEP-1 cells was > 10000 nM. This compound also showed an IC50 with Hep 3B cells of 1.5 nM. Besides, the Peak Time tmax in data set [1] was 0.5 h. Besides, in data set [1] (Sprague-Dawley, rat, po), the AUC(0-t) amounted to 12900 ng·h/mL, the AUC(0-inf) worked out at 13000 ng·h/mL, the half-life is 0.9 h and the Cmax was 2790 ng/mL. Further, in data set [1] (Sprague-Dawley, rat, po, read-out: Mean Residence Time MRT), the MRT was 2.8 h. In the data set with HuH-7 cells, this compound showed an IC50 of 3.3 nM.

Take `COC[C@H](C)Nc1cc(NC(=O)N2CCCc3cc(CN(C)C(=O)[C@H]4CCCO4)c(C=O)nc32)ncc1C#N` [Example 92, N-(5-Cyano-4-(((S)-1-methoxypropan-2-yl)amino)pyridin-2-yl)-7-formyl-6-(((R)—N-methyltetrahydrofuran-2-carboxamido)methyl)-3,4-dihydro-1,8-naphthyridin-1(2H)-carboxamide]: the 50% inhibitory concentration (IC50) against FGFR1 kinase was > 10000 nM.

Consider `CN(Cc1cc2c(nc1C=O)N(C(=O)Nc1cc(N[C@@H]3CCOC3)c(C#N)cn1)CCC2)C(=O)[C@H]1CCCO1` [Example 95, N-(5-Cyano-4-(((R)-tetrahydrofuran-3-yl)amino)pyridin-2-yl)-7-formyl-6-(((R)—N-methyltetrahydrofuran-2-carboxamido)methyl)-3,4-dihydro-1,8-naphthyridin-1 (2H)-carboxamide], for which the IC50 on FGFR1 kinase is > 10000 nM; in the data set with SK-HEP-1 cells, > 10000 nM; in the data set on Hep 3B cells, 2.8 nM; in the data set with HuH-7 cells, 12.9 nM.

Consider `COCCNc1cc(NC(=O)N2CCCc3cc(CN(C=O)C[C@H]4CCCO4)c(C=O)nc32)ncc1C#N` [Example 110, (R)—N-(5-Cyano-4-((2-methoxyethyl)amino)pyridin-2-yl)-7-formyl-6-((N-((tetrahydrofuran-2-yl)methyl)formylamino)methyl)-3,4-dihydro-1,8-naphthyridin-1(2H)-carboxamide], for which the results for the IC50 in the data set on SK-HEP-1 cells, with Hep 3B cells and with HuH-7 cells were > 10000 nM, 8.3 nM and 28.5 nM, respectively.

In the case of `COCCNc1cc(NC(=O)N2CCCc3cc(CN(C=O)[C@H]4CCOC4)c(C=O)nc32)ncc1C#N` [Example 114, (S)—N-(5-Cyano-4-((2-methoxyethyl)amino)pyridin-2-yl)-7-formyl-6-((N-(tetrahydrofuran-3-yl)formylamino)methyl)-3,4-dihydro-1,8-naphthyridin-1(2H)-carboxamide], the IC50 in the data set on SK-HEP-1 cells was > 10000 nM; with Hep 3B cells, 8.6 nM; in the data set with HuH-7 cells it was 26.7 nM.

For the origin of these results see US11608332B2, “FGFR4 inhibitor and preparation method and use thereof” (Jiangsu Hansoh Pharmaceutical Group Co., Ltd., priority 2016, dated 2023).
